Among the data in ChEMBL document CHEMBL1201862, “PubChem BioAssay data set” (2004) are IC50, EC50 and CC50 values, retold here.

Active and inactive are the calls of the source. Where only a bound is given, the exact number is not on record here.

The target of assay [1] is T1, Fatty acid synthase (Homo sapiens, UniProt P49327). Kind of assay: inhibition of human FAS-TE enzyme activity – biochemical, endpoint fluorescence intensity, uHTS hits, dose response (AID 624327).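 Also: fluorescence from hydrolysis of an O-methyl fluorescein acyl ester substrate by the enzyme.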 It is filed as functional.
Assay [2] concerns the target T1, Fatty acid synthase. Kind of assay: inhibition of human FAS-TE enzyme activity – biochemical, kinetic fluorescence intensity, dose response (AID 624326).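 Also: rate of fluorescence rise from hydrolysis of a fluorogenic O-methyl fluorescein ester substrate.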 In kind it is functional.
A short description of assay [3]: viability loss in human Jurkat cells – cell-based, luminescence, cytotoxicity control for P. falciparum gametocyte viability project, dose response (AID 1117277).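 Also: potency reflects loss of cellular ATP meaning fewer viable cells.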 In kind it is functional.
Assay [4] has as its target T2, Heat shock factor protein 1 (Mus musculus, UniProt P38532).
T2 sequence (P38532 whole entry): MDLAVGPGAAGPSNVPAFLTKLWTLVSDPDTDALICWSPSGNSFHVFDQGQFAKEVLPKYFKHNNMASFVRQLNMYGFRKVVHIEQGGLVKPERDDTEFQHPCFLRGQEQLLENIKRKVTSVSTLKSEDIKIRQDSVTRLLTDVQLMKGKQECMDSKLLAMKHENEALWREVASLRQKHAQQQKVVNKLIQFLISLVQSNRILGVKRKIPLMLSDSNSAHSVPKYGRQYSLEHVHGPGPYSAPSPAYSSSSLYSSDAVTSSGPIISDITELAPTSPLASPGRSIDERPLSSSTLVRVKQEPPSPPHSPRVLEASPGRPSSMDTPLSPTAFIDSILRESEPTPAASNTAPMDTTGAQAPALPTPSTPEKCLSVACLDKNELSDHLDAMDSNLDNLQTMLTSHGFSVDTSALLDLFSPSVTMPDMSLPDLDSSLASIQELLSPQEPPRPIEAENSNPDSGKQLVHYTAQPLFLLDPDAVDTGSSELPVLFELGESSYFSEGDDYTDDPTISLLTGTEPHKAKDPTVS
Kind of assay: enhancement of HSF1-driven luciferase signal – cell-based, NIH3T3, luminescence, dose retest, confirmation (AID 435004).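 Also: stress induced by proteasome inhibitor MG132 added 30 min after compound; luciferase reporter driven by HSF1 response element in NIH3T3 cells; actives raise luminescence as potentiators of the MG132 stress response.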 It is filed as functional.

Assay [5] can be described thus: viability inhibitors of stage V gametocytes – luminescence, dose response (AID 1117278).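 Also: gametocytes exposed to compound for 24 hours.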 It is filed as functional, cell-based.
The next assay deals with Ephrin type-A receptor 4 (Mus musculus, UniProt Q03137). Kind of assay: EphA4 ligand-binding antagonists – biochemical, colorimetric, mouse EphA4, primary screen (AID 689). In kind it is functional.
For assay [6], the target named is T3, Low molecular weight phosphotyrosine protein phosphatase (Homo sapiens, UniProt P24666).
T3 sequence (P24666 whole entry): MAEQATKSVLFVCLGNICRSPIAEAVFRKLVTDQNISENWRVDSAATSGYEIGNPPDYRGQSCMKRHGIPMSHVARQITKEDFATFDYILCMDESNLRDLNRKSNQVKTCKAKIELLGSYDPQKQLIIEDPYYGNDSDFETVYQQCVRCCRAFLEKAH
Kind of assay: inhibition of LMPTP-A enzymatic activity – biochemical, OMFP substrate, fluorescence intensity, set 2, dose response (AID 743307). In kind it is functional.

For assay [7], the target named is T3, Low molecular weight phosphotyrosine protein phosphatase. Kind of assay: inhibition of human LMPTP enzyme activity – biochemical, absorbance, pNPP substrate, LMPTP-A isoform, set 2, orthogonal assay, dose response (AID 743308). It is filed as functional.
The target of assay [8] is Muscarinic acetylcholine receptor M1 (Rattus norvegicus, UniProt P08482). Kind of assay: concentration-dependent potentiation of ACh at M1 – cell-based, calcium mobilization, CHO-K1, ACh EC20, dose response (AID 2425). In kind it is functional. (Calcium assays in cells follow changes in intracellular calcium, usually with a dye or a luminescent sensor.)
Assay [9] is described as follows: HIV-1 Vif–A3G interaction blockers – biochemical, TR-FRET, GST-Vif 1-94, biotin-A3G peptide, dose response retest, primary screen (AID 1117319).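 Also: TR-FRET signal of purified GST-Vif binding a biotinylated A3G peptide; inhibitors lower the FRET signal by blocking Vif and A3G binding.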 It is filed as functional.
The nature of assay [10]: viability loss in Vero cells – cytotoxicity control for Vif-APOBEC3G degradation inhibitor project, dose response (AID 1117358). In kind it is functional. Particulars: Vero.
Assay [11] addresses T4, Corticotropin-releasing factor receptor 2/Corticotropin-releasing factor-binding protein (Homo sapiens, UniProt P24387+Q13324).
T4 sequence (Q13324 whole entry): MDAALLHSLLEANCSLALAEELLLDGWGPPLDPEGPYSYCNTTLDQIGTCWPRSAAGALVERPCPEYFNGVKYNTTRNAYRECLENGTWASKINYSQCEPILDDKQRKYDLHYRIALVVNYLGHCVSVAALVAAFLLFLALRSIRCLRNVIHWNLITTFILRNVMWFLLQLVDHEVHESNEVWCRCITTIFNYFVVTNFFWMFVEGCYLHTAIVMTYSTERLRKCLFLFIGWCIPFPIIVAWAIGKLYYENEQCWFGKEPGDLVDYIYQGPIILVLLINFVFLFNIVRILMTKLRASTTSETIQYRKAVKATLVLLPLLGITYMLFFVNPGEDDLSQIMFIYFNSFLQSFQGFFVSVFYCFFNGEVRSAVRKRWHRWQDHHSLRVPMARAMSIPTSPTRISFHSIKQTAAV
T4 sequence (P24387 whole entry): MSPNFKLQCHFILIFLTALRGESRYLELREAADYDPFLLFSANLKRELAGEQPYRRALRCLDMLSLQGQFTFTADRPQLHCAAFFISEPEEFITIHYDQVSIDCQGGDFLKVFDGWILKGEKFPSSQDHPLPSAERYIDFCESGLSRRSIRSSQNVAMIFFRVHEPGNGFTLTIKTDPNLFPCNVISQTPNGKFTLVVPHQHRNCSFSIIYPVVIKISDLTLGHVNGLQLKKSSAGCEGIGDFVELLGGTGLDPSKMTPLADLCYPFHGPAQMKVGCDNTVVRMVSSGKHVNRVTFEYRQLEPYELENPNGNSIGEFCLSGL
Kind of assay: Dose Response confirmation of uHTS hits for small molecule antagonists of the CRF-binding protein and CRF-R2 receptor complex. It is filed as functional. As to conditions: read-out: IC50_Mean.

Assay [12] deals with T4, Corticotropin-releasing factor receptor 2/Corticotropin-releasing factor-binding protein. Kind of assay: activators of CRF receptor 2 with binding protein – uHTS hits, confirmation (AID 602473). It is filed as functional. Particulars: read-out: EC50_Mean.
Assay [13] concerns the target Voltage-gated inwardly rectifying potassium channel KCNH2 (Homo sapiens, UniProt Q12809). Kind of assay: concentration-dependent hERG rescue from blockers – cell-based, thallium flux, dose response (AID 2121). It is filed as ADME. (Block of hERG is tested as a sign of cardiac risk.)
Assay [14] in a line: viability of uninfected HEp-2 cells – cell-based, HTS, cytotoxicity control for RSV inhibitor project, dose response (AID 2410). Particulars: human respiratory syncytial virus. In kind it is functional.
Assay [15] addresses Ubiquitin carboxyl-terminal hydrolase BAP1 (Homo sapiens, UniProt Q92560). Kind of assay: inhibition of BAP1 ubiquitin hydrolase activity – biochemical, dose response (AID 714). In kind it is functional.
Assay [16] concerns the target Heat shock protein HSP 90-alpha (Homo sapiens, UniProt P07900). Kind of assay: Luminescence-based dose response biochemical high throughput screening assay for inhibitors of the Heat Shock Protein 90 (HSP90). [Related pubchem assays: 1831 (Summary AID.), 1846 (Confirmation screen.), 1789 (Primary screen.)].
Assay [17] addresses E3 ubiquitin-protein ligase Mdm2 (Homo sapiens, UniProt Q00987). Kind of assay: MDM2-luc reporter signal enhancers, multi-concentration potency testing, MDM2 ubiquitin-protein ligase inhibitor program, whole-cell format, luminescence detection, 384-well microplate (AID 1394).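 Also: MDM2 E3 inhibitors raise luminescence so EC50 is for signal enhancement.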 It is filed as functional.

T1 sequence (P49327 whole entry): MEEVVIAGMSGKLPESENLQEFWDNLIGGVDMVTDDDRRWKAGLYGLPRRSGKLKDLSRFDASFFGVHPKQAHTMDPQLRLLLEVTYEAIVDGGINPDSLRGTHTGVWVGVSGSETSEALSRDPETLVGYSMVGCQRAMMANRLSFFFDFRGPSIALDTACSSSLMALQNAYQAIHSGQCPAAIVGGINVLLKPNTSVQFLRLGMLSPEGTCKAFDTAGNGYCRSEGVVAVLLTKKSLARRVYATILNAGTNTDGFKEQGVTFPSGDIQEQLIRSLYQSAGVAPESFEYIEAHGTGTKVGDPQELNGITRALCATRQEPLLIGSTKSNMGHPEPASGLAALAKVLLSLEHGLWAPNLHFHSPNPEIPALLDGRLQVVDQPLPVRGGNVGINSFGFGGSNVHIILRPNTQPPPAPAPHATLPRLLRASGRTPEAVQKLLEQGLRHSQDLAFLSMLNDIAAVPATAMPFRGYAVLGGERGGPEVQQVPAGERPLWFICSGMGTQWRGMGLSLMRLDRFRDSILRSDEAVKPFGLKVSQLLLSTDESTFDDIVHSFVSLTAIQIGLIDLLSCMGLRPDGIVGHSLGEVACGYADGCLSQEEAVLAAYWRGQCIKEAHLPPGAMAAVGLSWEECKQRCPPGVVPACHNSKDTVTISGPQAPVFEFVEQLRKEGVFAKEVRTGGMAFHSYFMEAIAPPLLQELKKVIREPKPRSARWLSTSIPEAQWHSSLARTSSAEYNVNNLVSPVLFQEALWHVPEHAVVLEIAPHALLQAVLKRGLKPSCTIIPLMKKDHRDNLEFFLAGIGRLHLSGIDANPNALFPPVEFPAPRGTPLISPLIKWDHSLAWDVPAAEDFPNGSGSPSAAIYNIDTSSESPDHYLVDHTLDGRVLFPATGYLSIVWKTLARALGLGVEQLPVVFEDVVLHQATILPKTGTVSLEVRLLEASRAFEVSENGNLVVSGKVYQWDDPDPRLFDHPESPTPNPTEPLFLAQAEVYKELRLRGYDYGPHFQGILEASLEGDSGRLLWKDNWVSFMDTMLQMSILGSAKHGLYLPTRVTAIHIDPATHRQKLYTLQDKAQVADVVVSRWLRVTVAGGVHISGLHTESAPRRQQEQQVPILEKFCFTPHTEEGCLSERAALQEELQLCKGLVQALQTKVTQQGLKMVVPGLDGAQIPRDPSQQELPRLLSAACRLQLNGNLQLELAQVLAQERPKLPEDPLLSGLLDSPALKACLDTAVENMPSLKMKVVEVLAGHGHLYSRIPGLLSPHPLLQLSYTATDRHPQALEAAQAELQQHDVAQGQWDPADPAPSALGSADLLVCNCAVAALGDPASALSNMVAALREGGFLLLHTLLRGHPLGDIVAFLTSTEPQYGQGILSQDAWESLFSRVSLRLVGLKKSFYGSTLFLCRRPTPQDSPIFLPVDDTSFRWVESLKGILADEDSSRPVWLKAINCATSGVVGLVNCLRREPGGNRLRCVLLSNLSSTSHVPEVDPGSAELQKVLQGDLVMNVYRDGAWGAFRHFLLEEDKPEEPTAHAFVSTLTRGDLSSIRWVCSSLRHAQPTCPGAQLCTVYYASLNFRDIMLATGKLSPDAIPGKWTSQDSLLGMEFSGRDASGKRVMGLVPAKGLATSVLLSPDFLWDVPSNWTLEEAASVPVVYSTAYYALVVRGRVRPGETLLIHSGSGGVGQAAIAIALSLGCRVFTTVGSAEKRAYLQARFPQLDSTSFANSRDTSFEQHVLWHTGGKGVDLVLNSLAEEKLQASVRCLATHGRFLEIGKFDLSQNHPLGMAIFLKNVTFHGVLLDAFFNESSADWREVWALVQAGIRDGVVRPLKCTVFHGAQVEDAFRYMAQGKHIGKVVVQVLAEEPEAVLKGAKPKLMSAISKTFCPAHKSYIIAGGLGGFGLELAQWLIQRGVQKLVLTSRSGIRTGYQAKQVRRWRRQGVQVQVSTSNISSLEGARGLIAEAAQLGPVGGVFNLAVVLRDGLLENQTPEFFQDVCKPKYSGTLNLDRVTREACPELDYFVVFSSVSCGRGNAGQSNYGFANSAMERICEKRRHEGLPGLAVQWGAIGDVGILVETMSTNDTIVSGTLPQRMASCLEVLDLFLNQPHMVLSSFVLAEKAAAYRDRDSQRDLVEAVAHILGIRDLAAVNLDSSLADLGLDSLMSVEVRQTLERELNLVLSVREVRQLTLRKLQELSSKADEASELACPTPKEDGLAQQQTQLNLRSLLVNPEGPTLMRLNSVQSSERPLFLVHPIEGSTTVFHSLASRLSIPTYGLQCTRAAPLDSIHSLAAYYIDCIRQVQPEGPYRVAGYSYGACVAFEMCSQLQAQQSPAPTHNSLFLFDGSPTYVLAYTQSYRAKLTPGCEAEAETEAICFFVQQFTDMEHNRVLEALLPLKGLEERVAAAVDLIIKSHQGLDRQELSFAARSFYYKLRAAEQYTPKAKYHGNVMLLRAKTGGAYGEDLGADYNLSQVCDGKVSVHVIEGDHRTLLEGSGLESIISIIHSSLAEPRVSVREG
E3 ubiquitin-protein ligase Mdm2, sequence (Q00987 whole entry): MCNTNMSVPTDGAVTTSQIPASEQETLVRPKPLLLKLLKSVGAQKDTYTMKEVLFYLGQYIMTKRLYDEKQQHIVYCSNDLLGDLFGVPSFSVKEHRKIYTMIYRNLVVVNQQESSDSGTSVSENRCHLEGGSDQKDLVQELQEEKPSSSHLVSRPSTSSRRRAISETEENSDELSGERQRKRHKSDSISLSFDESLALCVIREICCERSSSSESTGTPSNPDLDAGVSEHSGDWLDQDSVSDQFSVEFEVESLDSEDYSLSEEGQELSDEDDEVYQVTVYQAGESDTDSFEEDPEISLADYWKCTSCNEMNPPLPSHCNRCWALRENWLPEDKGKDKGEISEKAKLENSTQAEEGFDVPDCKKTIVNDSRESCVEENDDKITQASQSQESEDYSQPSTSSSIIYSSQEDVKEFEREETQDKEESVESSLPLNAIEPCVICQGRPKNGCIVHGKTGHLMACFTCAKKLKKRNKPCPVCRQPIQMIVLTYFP
Ubiquitin carboxyl-terminal hydrolase BAP1, sequence (Q92560 whole entry): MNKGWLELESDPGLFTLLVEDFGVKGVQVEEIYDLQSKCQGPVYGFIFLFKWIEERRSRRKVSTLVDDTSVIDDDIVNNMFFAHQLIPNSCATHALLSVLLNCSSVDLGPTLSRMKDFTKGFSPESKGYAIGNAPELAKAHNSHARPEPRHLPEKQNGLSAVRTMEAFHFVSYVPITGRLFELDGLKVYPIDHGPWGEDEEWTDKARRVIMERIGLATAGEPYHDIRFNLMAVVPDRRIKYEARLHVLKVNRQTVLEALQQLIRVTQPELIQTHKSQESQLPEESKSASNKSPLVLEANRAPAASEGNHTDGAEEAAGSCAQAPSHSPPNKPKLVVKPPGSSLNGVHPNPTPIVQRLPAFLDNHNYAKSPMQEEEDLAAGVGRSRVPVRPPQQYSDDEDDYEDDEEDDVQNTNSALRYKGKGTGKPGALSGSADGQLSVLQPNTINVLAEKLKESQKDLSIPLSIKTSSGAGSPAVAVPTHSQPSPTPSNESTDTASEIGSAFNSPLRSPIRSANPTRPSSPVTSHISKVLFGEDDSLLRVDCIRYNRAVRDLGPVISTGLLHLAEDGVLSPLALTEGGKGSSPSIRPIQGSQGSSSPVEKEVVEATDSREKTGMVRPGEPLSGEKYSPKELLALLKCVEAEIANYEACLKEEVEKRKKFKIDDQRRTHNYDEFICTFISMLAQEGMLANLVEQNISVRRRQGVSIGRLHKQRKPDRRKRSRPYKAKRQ
Voltage-gated inwardly rectifying potassium channel KCNH2, sequence (Q12809 whole entry): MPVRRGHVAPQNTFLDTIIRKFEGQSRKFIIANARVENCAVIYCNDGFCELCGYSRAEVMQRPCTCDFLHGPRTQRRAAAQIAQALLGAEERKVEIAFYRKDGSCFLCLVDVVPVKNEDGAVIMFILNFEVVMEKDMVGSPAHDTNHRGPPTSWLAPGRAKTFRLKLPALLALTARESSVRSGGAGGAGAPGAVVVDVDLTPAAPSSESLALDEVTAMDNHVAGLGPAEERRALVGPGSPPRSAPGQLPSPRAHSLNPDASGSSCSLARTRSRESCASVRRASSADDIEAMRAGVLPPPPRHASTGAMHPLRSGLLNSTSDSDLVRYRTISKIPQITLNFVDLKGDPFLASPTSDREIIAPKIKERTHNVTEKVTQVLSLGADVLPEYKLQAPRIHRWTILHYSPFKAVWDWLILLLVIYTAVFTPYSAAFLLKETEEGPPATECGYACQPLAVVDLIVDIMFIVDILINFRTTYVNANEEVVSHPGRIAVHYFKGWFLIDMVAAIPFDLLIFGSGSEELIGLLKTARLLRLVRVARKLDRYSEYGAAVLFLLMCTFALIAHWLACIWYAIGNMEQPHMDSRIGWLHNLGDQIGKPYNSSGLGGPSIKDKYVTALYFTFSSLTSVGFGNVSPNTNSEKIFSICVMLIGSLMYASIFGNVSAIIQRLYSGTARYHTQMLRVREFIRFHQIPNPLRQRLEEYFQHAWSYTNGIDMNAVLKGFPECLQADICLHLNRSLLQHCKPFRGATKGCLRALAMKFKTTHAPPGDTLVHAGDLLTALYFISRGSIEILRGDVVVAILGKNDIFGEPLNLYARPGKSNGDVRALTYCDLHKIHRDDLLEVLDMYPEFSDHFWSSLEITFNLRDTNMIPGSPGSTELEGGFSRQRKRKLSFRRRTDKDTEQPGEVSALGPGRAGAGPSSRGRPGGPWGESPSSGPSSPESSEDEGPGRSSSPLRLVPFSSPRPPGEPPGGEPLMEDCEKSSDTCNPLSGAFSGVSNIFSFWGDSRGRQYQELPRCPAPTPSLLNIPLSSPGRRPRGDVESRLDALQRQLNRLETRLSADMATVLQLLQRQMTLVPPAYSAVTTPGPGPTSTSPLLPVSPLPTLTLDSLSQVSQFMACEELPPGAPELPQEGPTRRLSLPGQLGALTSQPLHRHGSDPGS

For `Cc1cc2c(cc1C)C(c1cccc([N+](=O)[O-])c1)CC(=O)N2` (stereo not drawn), the IC50 on Fatty acid synthase [1] was 5.61 µM (active); on Fatty acid synthase [2], 7.33 µM (active); in assay [3] it was > 83.2 µM (inactive); in [5] it was > 109 µM (inactive). Moreover, the EC50 in assay [4] was > 260 µM (inactive).

Turning to `CCOC(=O)N1CCN(C(=O)CSc2nnc(-c3c[nH]c4ccccc34)n2CCOC)CC1`, the IC50 on Ephrin type-A receptor 4 was > 100 µM (not active).

Turning to `Brc1ccc2nc(-c3ccccc3)cc(NCCCN3CCCCC3)c2c1`, the IC50 in assay [6] and in assay [7] was > 80 µM (inactive) throughout.

For `Cc1cc(NC(=O)CS(=O)(=O)c2cn(Cc3cccc(-c4ccn(C)n4)c3)c3ccccc23)no1`, the EC50 in assay [8] was 3.45 µM (active).

Consider `CCc1ccccc1NC(=O)CC(O)(C(=O)OC)C(F)(F)F` (stereo not drawn), for which, in assay [9], the IC50 is > 100 µM (active).

For orientation: CC50 means the concentration at which the toxic effect on the cells reaches its halfway point. For the compound `O=C1CSC(c2nn(-c3ccccc3)cc2-c2cc3ccccc3oc2=O)N1Cc1ccco1` (stereo not drawn), in assay [10], the CC50 was > 40 µM (active). In addition, the IC50 in [11] was 19.2 µM (active). Also, the EC50 in assay [12] is > 53 µM (inactive).

Take `Sc1ncnc2c1sc1nc(-c3ccccc3)c3c(c12)CCCC3`: in assay [13], the EC50 is 1.69 µM (active). The CC50 in [14] was 16.9 µM (active).

For `Cc1sc(NC(=O)CSc2nnc(COc3ccc(Cl)cc3)n2C)c(C#N)c1C`, the IC50 in assay [15] is > 50 µM (not active).

Regarding `CN(C)c1ccc(C2Nc3cccc4cccc(c34)N2)cc1`, in [16], the IC50 was 6.25 µM (active).

Turning to `Cn1cc/c(=N\C=C(C#N)C#N)c2ccccc21`, in [17], the EC50 was 3.98 µM (not active).
